Article PMC9516332 (Frontiers in Oncology, 2022)
Read-outs that look alike come from different tables or passages of the source.

What was measured:
[1] = target: panel of 255 wild-type kinases (Homo sapiens, UniProt P07948); conditions: kinase LYNa; 1 µmol/L single concentration; ref DOI: 10.1158/1535-7163.MCT-18-0877; cited from earlier work
[2] = target: panel of 255 wild-type kinases (Homo sapiens, UniProt P68400); conditions: kinase CK2α1/β; 1 µmol/L single concentration; ref DOI: 10.1158/1535-7163.MCT-18-0877; cited from earlier work
[3] = target: panel of 255 wild-type kinases (Homo sapiens, UniProt Q16654); conditions: kinase PDHK4; 1 µmol/L single concentration; ref DOI: 10.1158/1535-7163.MCT-18-0877; cited from earlier work
[4] = target: T1, panel of 255 wild-type kinases (Homo sapiens, UniProt O14757); conditions: CHK1 kinase assay; 1 µmol/L single concentration; ref DOI: 10.1158/1535-7163.MCT-18-0877; cited from earlier work
T1 sequence (O14757 1-476): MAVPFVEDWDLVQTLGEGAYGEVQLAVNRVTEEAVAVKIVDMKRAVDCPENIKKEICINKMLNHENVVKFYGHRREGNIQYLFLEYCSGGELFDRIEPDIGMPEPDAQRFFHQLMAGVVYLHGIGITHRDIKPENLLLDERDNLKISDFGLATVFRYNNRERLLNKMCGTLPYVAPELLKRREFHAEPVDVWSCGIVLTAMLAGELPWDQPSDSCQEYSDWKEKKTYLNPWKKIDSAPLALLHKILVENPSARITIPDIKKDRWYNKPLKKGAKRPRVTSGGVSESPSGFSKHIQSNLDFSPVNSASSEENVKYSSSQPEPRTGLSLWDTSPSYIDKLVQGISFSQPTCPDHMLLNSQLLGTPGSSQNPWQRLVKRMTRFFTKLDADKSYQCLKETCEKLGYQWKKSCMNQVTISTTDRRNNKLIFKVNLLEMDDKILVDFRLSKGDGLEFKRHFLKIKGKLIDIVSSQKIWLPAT

[5] = target: T2, panel of 255 wild-type kinases (Homo sapiens, UniProt Q13188); conditions: MST2; 1 µmol/L single concentration; ref DOI: 10.1158/1535-7163.MCT-18-0877; cited from earlier work
T2 sequence (Q13188 1-491): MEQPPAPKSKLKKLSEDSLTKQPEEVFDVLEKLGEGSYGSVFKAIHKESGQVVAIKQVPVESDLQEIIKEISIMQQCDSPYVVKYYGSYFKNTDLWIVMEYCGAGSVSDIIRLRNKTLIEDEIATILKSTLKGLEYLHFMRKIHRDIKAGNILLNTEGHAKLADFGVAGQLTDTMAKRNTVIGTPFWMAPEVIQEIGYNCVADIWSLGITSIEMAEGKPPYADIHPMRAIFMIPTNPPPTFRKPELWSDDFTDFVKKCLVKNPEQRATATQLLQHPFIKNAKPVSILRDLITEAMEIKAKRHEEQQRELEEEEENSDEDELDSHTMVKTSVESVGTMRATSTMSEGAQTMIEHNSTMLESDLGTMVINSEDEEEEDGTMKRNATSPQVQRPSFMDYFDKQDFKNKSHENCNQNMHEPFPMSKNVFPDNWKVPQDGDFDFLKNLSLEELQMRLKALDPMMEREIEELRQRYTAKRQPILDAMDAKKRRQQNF

[6] = target: T3, panel of 255 wild-type kinases (Homo sapiens, UniProt Q06418); conditions: kinase TYRO3; 1 µmol/L single concentration; ref DOI: 10.1158/1535-7163.MCT-18-0877; cited from earlier work
T3 sequence (Q06418 41-890): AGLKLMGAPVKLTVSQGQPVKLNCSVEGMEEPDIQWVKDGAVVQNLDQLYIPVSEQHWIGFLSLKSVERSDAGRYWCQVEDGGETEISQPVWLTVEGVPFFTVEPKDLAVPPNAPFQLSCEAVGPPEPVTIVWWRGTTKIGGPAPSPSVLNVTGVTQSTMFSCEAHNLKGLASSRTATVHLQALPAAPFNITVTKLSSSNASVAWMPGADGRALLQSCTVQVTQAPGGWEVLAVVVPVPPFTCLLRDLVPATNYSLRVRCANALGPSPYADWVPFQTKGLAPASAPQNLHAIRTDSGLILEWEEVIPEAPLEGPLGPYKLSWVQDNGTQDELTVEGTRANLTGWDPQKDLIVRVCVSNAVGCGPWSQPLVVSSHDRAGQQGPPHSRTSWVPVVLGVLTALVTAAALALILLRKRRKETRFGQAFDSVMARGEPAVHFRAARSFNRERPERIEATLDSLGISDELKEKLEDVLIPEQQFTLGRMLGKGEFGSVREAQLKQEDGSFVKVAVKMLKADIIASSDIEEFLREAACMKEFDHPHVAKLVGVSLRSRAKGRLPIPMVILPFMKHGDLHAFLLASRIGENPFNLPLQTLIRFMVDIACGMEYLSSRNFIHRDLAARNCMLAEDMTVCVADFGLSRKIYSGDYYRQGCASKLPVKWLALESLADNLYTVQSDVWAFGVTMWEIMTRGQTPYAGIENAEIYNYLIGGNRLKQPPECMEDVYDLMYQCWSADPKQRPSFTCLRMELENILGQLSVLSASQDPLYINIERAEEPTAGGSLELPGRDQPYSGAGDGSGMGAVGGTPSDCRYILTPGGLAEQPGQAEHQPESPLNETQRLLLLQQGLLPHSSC

[7] = target: panel of 255 wild-type kinases (Homo sapiens, UniProt P00519); conditions: ABL kinase assay; 1 µmol/L single concentration; ref DOI: 10.1158/1535-7163.MCT-18-0877; cited from earlier work
[8] = target: panel of 255 wild-type kinases (Homo sapiens, UniProt P06493); conditions: CDC2/CycB1 kinase assay; 1 µmol/L single concentration; ref DOI: 10.1158/1535-7163.MCT-18-0877; cited from earlier work
[9] = target: panel of 255 wild-type kinases (Homo sapiens, UniProt Q13555); conditions: CaMK2γ kinase assay; 1 µmol/L single concentration; ref DOI: 10.1158/1535-7163.MCT-18-0877; cited from earlier work
EGFR-mutant cell lines = experiment: Cell viability assay, EGFR-mutant versus EGFR wild-type cell lines; assay type: cell-based

SMILES: CC#CC(=O)N1CCC[C@H]1c1nc(-c2ccc(C(=O)Nc3ccccn3)cc2)c2c(N)nccn12 [acalabrutinib]
- %-inhibition at 1 µmol/L, LYNa [1]: 2%
- %-inhibition at 1 µmol/L, CK2α1/β [2]: 5.34%
- %-inhibition at 1 µmol/L, PDHK4 [3]: 0.391%
- %-inhibition CHK1 [4]: -7%
- %-inhibition, MST2 [5]: -3.46%
- %-inhibition at 1 µmol/L, TYRO3 [6]: 3%
- %-inhibition ABL [7]: -2.81%
- %-inhibition CDC2/CycB1 [8]: -0.397%
- %-inhibition CaMK2γ [9]: -1.85%
- preferential targeting of EGFR-mutant cell lines (EGFR-mutant cell lines; MANOVA): did not significantly target

SMILES: C=CC(=O)Nc1cc(Nc2nccc(-c3cn(C)c4ccccc34)n2)c(OC)cc1N(C)CCN(C)C [osimertinib]
- %-inhibition at 1 µmol/L, LYNa [1]: 0.63%
- %-inhibition at 1 µmol/L, CK2α1/β [2]: 12%
- %-inhibition at 1 µmol/L, PDHK4 [3]: 0.264%
- %-inhibition CHK1 [4]: 11%
- %-inhibition at 1 µmol/L, TYRO3 [6]: 8%
- %-inhibition ABL [7]: 4.62%
- %-inhibition CDC2/CycB1 [8]: 23%
- %-inhibition CaMK2γ [9]: 4.25%
- lower IC50 (higher potency) in EGFR-mutant compared to EGFR wild-type cell lines (EGFR-mutant cell lines): 33 fold

SMILES: C=CC(=O)N1CCC[C@@H](n2nc(-c3ccc(Oc4ccccc4)cc3)c3c(N)ncnc32)C1 [ibrutinib]
- %-inhibition at 1 µmol/L, LYNa [1]: 99%
- %-inhibition at 1 µmol/L, CK2α1/β [2]: -11%
- %-inhibition CHK1 [4]: 10%
- %-inhibition, MST2 [5]: 17%
- %-inhibition at 1 µmol/L, TYRO3 [6]: 12%
- %-inhibition ABL [7]: 8%
- %-inhibition CDC2/CycB1 [8]: -1%
- %-inhibition CaMK2γ [9]: -1.83%
- lower IC50 (higher potency) in EGFR-mutant compared to EGFR wild-type cell lines (EGFR-mutant cell lines; on average, MANOVA): 28 fold
